Experimental data from patent US20150297639A1, “TREATING CANCER” (Rhode Island Hospital, A Lifespan-Partner, priority 2012, published 2015).

Assays:
DU145 cell line = DU145 cell line treated with 9NC; cited from earlier work
MCF-7 cells = assay: Apoptosis by flow cytometry, MCF-7 cells treated with Dox; format: cell-based, human; settings: 10 nM Dox 24 hours
Procedure: FIG. 10 is a bar graph showing the amount of apoptosis in MCF-7 cells that were treated with 10 nM Dox for 24 hours in the presence or absence of MDR ECVs. Cells were harvested and apoptosis measured by flow cytometry. A paired t-test was performed * comparing Dox-treated MCF7 cells and MCF7 cells co-cultured with MDR ECVs. * A paired t-test (p<0.0005) was performed comparing the reduction in soft agar colony formation between Dox treated and MCF7+MDR ECVs+Dox.
The reciprocal experiment from FIG. 9 was performed, and ECVs were isolated from MDR (resistant) cells and co-cultured with MCF7 (sensitive) cells for three days and treated with 10 nM Dox. The cells were analyzed for apoptosis induction by flow cytometry.

MCF7 breast cancer cells = assay: PARP cleavage Western blot, MCF7 cells treated with Dox; format: cell-based, human; settings: Dox 24 hours
Procedure: (§1) FIG. 8 is a photomicrograph showing MCF7 and MDR breast cancer cells treated with the indicated doses of doxorubicin (Dox) for 24 hours. Western blot analysis was performed to measure the cleavage of PARP (an indicator of apoptosis induction).
(§2) The transfer of chemosensitivity of MCF7 (sensitive) and MCF/MDR (resistant) (MDR) breast cancer cells that are sensitive or resistant, respectively to doxorubicin (Dox) was explored. These cells, similar to the prostate cancer cells, were grown in medium with serum that was depleted of ECVs.

MDR breast cancer cells = assay: PARP cleavage Western blot, MDR cells treated with Dox; format: cell-based, human; settings: Dox 24 hours
Procedure: as §1
FIG. 9 is a photomicrograph of a Western blot analysis for PARP cleavage and actin in protein lysates isolated from MDR (resistant) cells that were co-cultured with MCF7 (sensitive) ECVs for three days then treated with the indicated concentrations of Dox.
as §2
A reciprocal experiment was performed and ECVs from MCF-7 (sensitive) cells were isolated and co-cultured with MDR (resistant) cells for three days. The MDR (resistant) cells were treated with two doses of Dox.

DU145 cells = assay: PARP cleavage Western blot, DU145 cells treated with CPT; format: cell-based, human; settings: 100 nM CPT 24 hours, vs untreated control cells
Procedure: FIGS. 1A-D are a series of photomicrographs and bar graphs showing ECV-mediated reversal of apoptosis resistance and sensitivity. A, B. ECVs were isolated from DU145 S and DU145 R prostate cells. The ECVs were resuspended in PBS. DU145 S cells were co-cultured with DU145 R ECVs and DU145 R cells were co-cultured with DU145 S ECVs. Non-ECV and ECV co-cultured cells were treated with 100 nM of the anticancer agent camptothecin (CPT) for 24 hours and examined for PARP cleavage and actin via Western blot analysis to measure apoptosis. C, D. The same experiment from A and B was repeated and the samples were examined for apoptosis via propidium iodide staining using a flow cytometer. […]
Total cell extracts were prepared as previously described, and protein concentrations of lysates were determined using a Bradford assay kit (BioRad). […] Proteins recognized by antibodies were detected by enhanced chemilluminescence reagents (GE Healthcare).
To investigate the effects of ECV-mediated transfer of chemoresistance in prostate cancer, the mechanism of resistance to camptothecin (CPT) was studied in human prostate cancer cell lines. […] After six days, both groups were treated with CPT, cells were harvested and analyzed for apoptosis via Poly ADP Ribose Polymerase (PARP) cleavage. […] The same experiment was repeated, and the cells were analyzed for apoptosis via flow cytometry.

In the case of `CC[C@@]1(O)C(=O)OCc2c1cc1n(c2=O)Cc2cc3c([N+](=O)[O-])cccc3nc2-1` [9NC, 9-nitrocamptothecin], the apoptosis (DU145 cell line) is given as “extensive apoptosis”.
For `COc1cccc2c1C(=O)c1c(O)c3c(c(O)c1C2=O)C[C@@](O)(C(=O)CO)C[C@@H]3O[C@H]1C[C@H](N)[C@H](O)[C@H](C)O1` [Dox, doxorubicin], the apoptosis (MCF-7 cells) was “underwent significant apoptosis”, the “apoptosis measured by cleavage of PARP” value (MCF7 breast cancer cells) was “sensitive to dose-dependent induction of apoptosis” and the “apoptosis measured by cleavage of PARP” value (MDR breast cancer cells) was “remained resistant”.
With `CC[C@@]1(O)C(=O)OCc2c1cc1n(c2=O)Cc2cc3ccccc3nc2-1` [CPT, camptothecin] the PARP cleavage (DU145 cells) was “increase in PARP cleavage”.
